{"source": "paper PMC6032018", "about": "“Post-translational regulation of a Porphyromonas gingivalis regulator” (Journal of Oral Microbiology, 2018)", "key": {"RprY [1]": {"target": "T1, RprY (Porphyromonas gingivalis, UniProt B2RK10)", "T1 construct": "N-terminal His6-RprY (pETRprY), recombinant from E. coli BL21(DE3), 28 kDa ORF; already phosphorylated as purified", "T1 sequence (B2RK10 entry or part of it)": "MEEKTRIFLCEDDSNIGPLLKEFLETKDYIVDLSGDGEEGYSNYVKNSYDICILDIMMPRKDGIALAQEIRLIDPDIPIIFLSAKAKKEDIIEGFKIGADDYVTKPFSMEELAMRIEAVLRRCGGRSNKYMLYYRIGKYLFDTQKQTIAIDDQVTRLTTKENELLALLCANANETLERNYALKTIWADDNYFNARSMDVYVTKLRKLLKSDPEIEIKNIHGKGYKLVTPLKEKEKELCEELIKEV", "test": "EMSA with nqrA promoter DNA and in vitro ChIP after treatment with AcP", "type": "biochemical", "details": "phosphoryl donor; covalent; protein as purified already partly phosphorylated; acetylation by AcP not ruled out"}, "RprY [2]": {"target": "T1, RprY", "test": "autoacetylation, anti-acetyl-lysine Western blot", "type": "biochemical", "details": "10 mM Tris-HCl pH 8.0, 37 °C, no added enzyme; covalent (lysine acetylation); acetyl donor"}}}
{"smiles": "CC(=O)OP(=O)(O)O", "note": "[acetyl phosphate]", "values": [{"measurement": "EMSA with nqrA promoter DNA and in vitro ChIP after treatment with AcP", "setting": "RprY [1]", "value": "increasing concentrations of AcP resulted in increased incorporation of the labelled promoter into RprY-DNA complexes"}]}
{"smiles": "CC(=O)SCCNC(=O)CCNC(=O)[C@H](O)C(C)(C)COP(=O)(O)OP(=O)(O)OC[C@H]1O[C@@H](n2cnc3c(N)ncnc32)[C@H](O)[C@@H]1OP(=O)(O)O", "note": "[acetyl-CoA]", "values": [{"measurement": "autoacetylation, anti-acetyl-lysine Western blot", "setting": "RprY [2]", "value": "RprY was dependent on both the concentration of Ac-CoA and the length of incubation"}]}
